The values that follow come from ChEMBL document CHEMBL1201862, “PubChem BioAssay data set” (2004).

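1) Cells in 96-well plates. 2) Compound, 48 h, 5 concentrations. 3) Linear interpolation between surrounding doses. 4) Unreached endpoint = highest concentration. GI50 is the concentration that inhibits growth by half.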 The source made the active and inactive calls. Cut-off read from the data, not from the text of the source: active = GI50 up to about 1.1 µM and inactive = higher.

Test systems include IGROV-1; NCI-H522; EKVX; DMS-273; HOP-92; RPMI-8226; HCC 2998; A498; OVCAR-4; OVCAR-8; OVCAR-3; CAKI-1; U-251; HOP-62; SK-MEL-28; SK-MEL-2; HCT-15; RXF 393.
Assay in all cases: NCI tumour cell line growth inhibition, 48 h

Turning to `O=C(Nc1ccc(Br)cc1)C(=O)C(C(=O)c1ccccc1F)C1OC(=O)c2ccccc21` (configuration not stated), the GI50 in the test on IGROV-1 was 31.4 µM (inactive); with NCI-H522 it was 20.7 µM (inactive); with EKVX, 81.1 µM (inactive); with DMS-273, 31 µM (inactive); with HOP-92, 27.7 µM (inactive); in the test on RPMI-8226, 17.8 µM (inactive). The GI50 was 16.9 µM (inactive) with HCC 2998; 40.1 µM (inactive) in the test with A498; 24.7 µM (inactive) in the test with OVCAR-4; 24.8 µM (inactive) in the test on OVCAR-8; 39.8 µM (inactive) in the test on OVCAR-3; 37.8 µM (inactive) in the test on CAKI-1. Further, the GI50 was 19.3 µM (inactive) with U-251; 22.8 µM (inactive) with HOP-62; 18.7 µM (inactive) with SK-MEL-28; 21.8 µM (inactive) in the test on SK-MEL-2; 28.8 µM with HCT-15.
`CCn1c(CSc2nc(-c3ccccc3)c(-c3ccccc3)[nH]2)n[nH]c1=S`: the GI50 in the test with IGROV-1, with NCI-H522, in the test on EKVX, in the test with DMS-273, in the test with HOP-92 and with RPMI-8226 was > 100 µM (inactive) each time. Also, the GI50 in the test with HCC 2998 is 0.0243 µM (active); with A498, > 100 µM (inactive); with OVCAR-4, > 100 µM (inactive); with OVCAR-8, > 100 µM (inactive); with OVCAR-3, > 100 µM (inactive); in the test with U-251, > 100 µM (inactive). For the same molecule, the GI50 is > 100 µM (inactive) with HOP-62, > 100 µM (inactive) in the test on SK-MEL-28, > 100 µM (inactive) in the test on SK-MEL-2 and over 100 µM with HCT-15.
`O=C(c1ccc(Cl)cc1)c1ccc(OCCCOc2ccc(C(=O)c3ccc(Cl)cc3)cc2)cc1`: the GI50 with IGROV-1 was > 100 µM (inactive); in the test with NCI-H522 it was > 100 µM (inactive); in the test on RXF 393, 88.3 µM (inactive); in the test on EKVX it was > 100 µM (inactive); with DMS-273, > 100 µM (inactive); with HOP-92, 78.9 µM (inactive). In addition, the GI50 in the test on RPMI-8226, with HCC 2998, in the test with OVCAR-4, in the test with OVCAR-8, with OVCAR-3 and with CAKI-1 was > 100 µM (inactive) throughout. Moreover, the GI50 was > 100 µM (inactive) in the test on U-251; > 100 µM (inactive) in the test on HOP-62; > 100 µM (inactive) in the test with SK-MEL-28; > 100 µM (inactive) with SK-MEL-2; over 100 µM in the test with HCT-15.
`CC12N=NN(c3ccc([N+](=O)[O-])cc3)C1(O)c1ccccc1C2=O` (configuration not stated): the GI50 in the test on IGROV-1, with NCI-H522, with RXF 393, in the test on EKVX, in the test with DMS-273 and in the test with RPMI-8226 was > 100 µM (inactive) in each case. Moreover, the GI50 in the test on HCC 2998 is > 100 µM (inactive); in the test on OVCAR-8, > 100 µM (inactive); with OVCAR-3, > 100 µM (inactive); in the test with U-251, > 100 µM (inactive); with HOP-62, > 100 µM (inactive); in the test on HCT-15 it was over 100 µM.
On to `COc1ccc(OC)c(NC(=O)CCC/C(CC(=O)c2ccc(O)c(OC)c2)=N\NC(=O)C[N+](C)(C)C)c1`, for which the GI50 in the test with IGROV-1 is > 100 µM (inactive); with NCI-H522, > 100 µM (inactive); with EKVX it was > 100 µM (inactive); in the test with DMS-273, > 100 µM (inactive); in the test on HOP-92, > 100 µM (inactive); in the test with RPMI-8226, 79.3 µM (inactive). For the same molecule, the GI50 in the test on HCC 2998, in the test on A498, in the test on OVCAR-4, in the test on OVCAR-8, with OVCAR-3 and with CAKI-1 was > 100 µM (inactive) each time. Moreover, the GI50 in the test with U-251 was > 100 µM (inactive); in the test on HOP-62 it was > 100 µM (inactive); in the test on SK-MEL-28, > 100 µM (inactive); with SK-MEL-2 it was > 100 µM (inactive); in the test with HCT-15, over 100 µM.
In the case of `O=C(c1nc2ccc(Cl)cc2[nH]c1=O)C(O)c1ccco1` (configuration not stated), the GI50 in the test on IGROV-1 was 45.9 µM (inactive); in the test with NCI-H522 it was 1.9 µM (inactive); in the test with RXF 393 it was > 100 µM (inactive); in the test on EKVX, > 100 µM (inactive); in the test on DMS-273, 35.5 µM (inactive); in the test on HOP-92, > 100 µM (inactive). Besides, the GI50 with HCC 2998 is 44 µM (inactive); in the test on OVCAR-4, > 100 µM (inactive); with OVCAR-3, 46 µM (inactive); in the test on CAKI-1 it was 53 µM (inactive); in the test with SK-MEL-28 it was > 100 µM (inactive); in the test on SK-MEL-2, 87.1 µM (inactive). In the test with HCT-15, this molecule showed a GI50 of 15.5 µM.
With `CN(C)NC1=C([N+](=O)[O-])C=NN(c2ccccc2)C1`, the GI50 is 2.19 µM (inactive) in the test with IGROV-1; 0.177 µM (active) in the test with NCI-H522; 1.93 µM (inactive) with RXF 393; 1.75 µM (inactive) in the test with EKVX; 1.75 µM (inactive) in the test on DMS-273; 2.02 µM (inactive) in the test with HOP-92. For the same molecule, the GI50 with HCC 2998 is 1.79 µM (inactive); with A498, 20.9 µM (inactive); with OVCAR-4 it was 1.66 µM (inactive); in the test with OVCAR-8, 2.04 µM (inactive); with OVCAR-3, 1.85 µM (inactive); in the test on CAKI-1, 1.95 µM (inactive). In addition, the GI50 is 1.76 µM (inactive) in the test on U-251; 2.16 µM (inactive) with HOP-62; 1.81 µM (inactive) in the test on SK-MEL-28; 1.71 µM (inactive) in the test on SK-MEL-2; 1.55 µM in the test with HCT-15.
On to `COc1ccc(N(C)Sc2ccccc2)cc1`, for which the GI50 is 19.9 µM (inactive) in the test on IGROV-1; 38.8 µM (inactive) with NCI-H522; 19.9 µM (inactive) in the test with RXF 393; 34.4 µM (inactive) in the test with DMS-273; 79.8 µM (inactive) with HOP-92; 36.1 µM (inactive) with RPMI-8226. The GI50 in the test with HCC 2998 was > 100 µM (inactive); in the test on OVCAR-8, 49.9 µM (inactive); in the test on OVCAR-3, 52.4 µM (inactive); in the test with U-251, 32.8 µM (inactive); in the test on HOP-62 it was 95.5 µM (inactive); in the test on SK-MEL-28, 55.2 µM (inactive). In addition, the GI50 with SK-MEL-2 is 65.5 µM (inactive); in the test with HCT-15 it was 38.1 µM.
On to `[O-][S+]1CSCS1` (configuration not stated), for which the GI50 in the test on IGROV-1, in the test with NCI-H522, in the test with RXF 393, in the test on EKVX, with DMS-273 and with HOP-92 was > 100 µM (inactive) throughout. Further, the GI50 with HCC 2998, in the test with A498, in the test with OVCAR-4, in the test on OVCAR-8, with OVCAR-3 and in the test with CAKI-1 was > 100 µM (inactive) throughout. Moreover, the GI50 in the test with U-251, in the test on HOP-62, in the test with SK-MEL-28 and in the test with SK-MEL-2 was > 100 µM (inactive) in each case.
In the case of `CCn1cnc2c(=S)nc(N)[nH]c21`, the GI50 in the test on IGROV-1, with NCI-H522, in the test on RXF 393, with EKVX, in the test on DMS-273 and in the test with RPMI-8226 was > 100 µM (inactive) in each case. Besides, the GI50 in the test with HCC 2998, in the test on OVCAR-8, with OVCAR-3, in the test on U-251, with HOP-62 and in the test on SK-MEL-28 was > 100 µM (inactive) each time. The molecule further had a GI50 in the test on HCT-15 of over 100 µM.
Take `CC1(c2ccccc2)CC12C(=O)NC(=O)NC2=O` (configuration not stated): the GI50 with IGROV-1, in the test on NCI-H522, in the test on EKVX, in the test with DMS-273, in the test with HOP-92 and in the test with RPMI-8226 was > 100 µM (inactive) in each case. Besides, the GI50 with HCC 2998, with OVCAR-4, in the test with OVCAR-8, with OVCAR-3, with CAKI-1 and in the test with U-251 was > 100 µM (inactive) throughout. For the same molecule, the GI50 was > 100 µM (inactive) in the test with HOP-62, > 100 µM (inactive) with SK-MEL-28, > 100 µM (inactive) in the test with SK-MEL-2 and over 100 µM in the test on HCT-15.
For `COC(=O)c1c(C)oc2ccc(OC(C)=O)cc12`, the GI50 is > 100 µM (inactive) with IGROV-1; > 100 µM (inactive) with NCI-H522; > 100 µM (inactive) with RXF 393; 54.3 µM (inactive) in the test on EKVX; > 100 µM (inactive) in the test on DMS-273; > 100 µM (inactive) with RPMI-8226. Further, the GI50 was 30.5 µM (inactive) with HCC 2998; > 100 µM (inactive) in the test on A498; > 100 µM (inactive) with OVCAR-4; > 100 µM (inactive) with OVCAR-8; > 100 µM (inactive) in the test with OVCAR-3; > 100 µM (inactive) with CAKI-1. Further, the GI50 in the test on U-251 is > 100 µM (inactive); in the test on HOP-62 it was > 100 µM (inactive); in the test with SK-MEL-28 it was > 100 µM (inactive); in the test with SK-MEL-2, > 100 µM (inactive); in the test on HCT-15, over 100 µM.
On to `CC1(Cl)CC2OC3(Br)C=CC(C)(O)C2(CC1Br)C3(C)C` (configuration not stated), for which the GI50 in the test with IGROV-1 was > 100 µM (inactive); in the test on RXF 393, > 100 µM (inactive); in the test on EKVX, > 100 µM (inactive); with DMS-273, > 100 µM (inactive); in the test with HOP-92 it was 50.9 µM (inactive); with RPMI-8226, > 100 µM (inactive). Also, the GI50 in the test on HCC 2998, in the test with A498, in the test with OVCAR-4, with OVCAR-8, with OVCAR-3 and in the test with CAKI-1 was > 100 µM (inactive) each time. In addition, the GI50 was > 100 µM (inactive) in the test with U-251; > 100 µM (inactive) in the test with HOP-62; > 100 µM (inactive) with SK-MEL-28; > 100 µM (inactive) in the test on SK-MEL-2; over 100 µM in the test with HCT-15.
